The compounds below were run on MT-4 cells (assay: MT-4 proliferation assay). Conditions: Homo sapiens, MT4, 120 h, read-out: MT4 Assay (EC50, nM).
Type: cell-based, human
Experimental: MT-4 Proliferation Assay:
Compounds were tested in a standardized high-throughput 384-well assay format. Each compound was serially diluted 3-fold in 100% DMSO in polypropylene 384-well plates using a Biomek FX Workstation, and 0.4 μL compound added to an assay plate containing 40 μL RPMI media. Compounds were arranged in a horizontal pattern, with 10 concentrations per compound, and 8 compounds added per plate. Due to low DMSO tolerability, the final DMSO concentration never exceeded 0.5% (v/v). Each assay plate contained 10 μM Puromycin and 0.5% DMSO in RPMI-1640 as positive and negative controls respectively. MT-4 cells (HTLV-1 transformed, human T lymphoblastoid cells, NIH Aids Reagent program) were added in volumes of 35 μL per well and 2,000 cells per well using a Biotek uFlow Workstation (Biotek, Winooski, Vt.), and the plates subsequently incubated for 5 days at 37° C. in an incubator set at 5% CO2 and 90% humidity.
After 5 days, 22 μL Cell Titer Glo (Promega) was added to the assay plates with a Biotek uFlow Workstation. Plates were subsequently placed on a Perkin Elmer Envision Plate Reader for 5 minutes before the luminescence signal was read.
With `Cc1noc(C)c1-c1cc(S(=O)(=O)NC2CCCC2)c2nc([S+](C)[O-])[nH]c2c1` (stereo not shown) [Compound 1020-5, N-Cyclopentyl-6-(3,5-dimethylisoxazol-4-yl)-2-(methylsulfinyl)-1H-benzo[d]imidazole-4-sulfonamide] the EC50 was 329 nM.

Same assay, conditions: Homo sapiens, MT4, 120 h; Table 1; 5 days, Cell Titer Glo; read-out: MT4 Assay (EC50)
Work on `Cc1noc(C)c1-c1cc(S(=O)(=O)NC2CCCC2)c2nc(NCC3CC3)[nH]c2c1` [Compound 1020-1, N-Cyclopentyl-2-(cyclopropylmethylamino)-6-(3,5-dimethylisoxazol-4-yl)-1H-benzo[d]imidazole-4-sulfonamide] yielded an EC50 of 193 nM. `CSc1nc2c(S(=O)(=O)NC3CCCC3)cc(-c3c(C)noc3C)cc2[nH]1` [Compound 1020-4, N-Cyclopentyl-6-(3,5-dimethylisoxazol-4-yl)-2-(methylthio)-1H-benzo[d]imidazole-4-sulfonamide] gave an EC50 of 192 nM. For `Cc1cnn(C)c1-c1cc(-c2c(C)noc2C)cc2nc(C3CC3)[nH]c12` [Compound 1020-12, 4-(2-Cyclopropyl-7-(1,4-dimethyl-1H-pyrazol-5-yl)-1H-benzo[d]imidazol-5-yl)-3,5-dimethylisoxazole], the EC50 was 21.3 nM. For `Cc1noc(C)c1-c1cc(-c2cccnc2-c2ccccc2)c2nc(C3CC3)[nH]c2c1` [Compound 1020-19, 4-(2-Cyclopropyl-4-(2-phenylpyridin-3-yl)-1H-benzo[d]imidazol-6-yl)-3,5-dimethylisoxazole], the EC50 was 24.4 nM. `CC/C=C(\CC)c1cc(-c2c(C)noc2C)cc2nc(C3CC3)[nH]c12` [Compound 1020-28, (E)-4-(2-Cyclopropyl-4-(hex-3-en-3-yl)-1H-benzo[d]imidazol-6-yl)-3,5-dimethylisoxazole] was tested, and the EC50 was 51.6 nM. In the case of `Cc1noc(C)c1-c1cc(/C=C/c2ccccc2)c2[nH]c(C3CC3)nc2c1` [Compound 1020-37, (E)-4-(2-cyclopropyl-4-styryl-1H-benzo[d]imidazol-6-yl)-3,5-dimethylisoxazole], the EC50 is reported as 518 nM. `Cc1noc(C)c1-c1cc(C(C)c2ccc(F)cc2)c2[nH]c(C3CC3)nc2c1` (stereo not shown) [Compound 1020-44, 4-(2-Cyclopropyl-4-(1-(4-fluorophenyl)ethyl)-1H-benzo[d]imidazol-6-yl)-3,5-dimethylisoxazole] was tested, and the EC50 was 86.1 nM. For `Cc1noc(C)c1-c1cc(NC2CCCC2)c2nc(C3CC3)[nH]c2c1` [Compound 1020-50, N-Cyclopentyl-2-cyclopropyl-6-(3,5-dimethylisoxazol-4-yl)-1H-benzo[d]imidazol-4-amine], the EC50 was 353 nM. With `Cc1ccnc(C)c1-c1cc(-c2c(C)noc2C)cc2nc(C3CC3)[nH]c12` [Compound 1020-57, 4-(2-Cyclopropyl-7-(2,4-dimethylpyridin-3-yl)-1H-benzo[d]imidazol-5-yl)-3,5-dimethylisoxazole] the EC50 was 13.6 nM. Work on `Cc1n[nH]c(C)c1-c1cc(-c2c(C)noc2C)cc2nc(C3CC3)n(C)c12` [Compound 1020-72, 4-(2-cyclopropyl-7-(3,5-dimethyl-1H-pyrazol-4-yl)-1-methyl-1H-benzo[d]imidazol-5-yl)-3,5-dimethylisoxazole] yielded an EC50 of 6.5 nM. Work on `Cc1ccc2ncccc2c1-c1cc(-c2c(C)noc2C)cc2nc(C3CC3)n(C)c12` [Compound 1020-74, 4-(2-Cyclopropyl-1-methyl-7-(6-methylquinolin-5-yl)-1H-benzo[d]imidazol-5-yl)-3,5-dimethylisoxazole] yielded an EC50 of 15.3 nM. With `Cc1n[nH]c(C)c1-c1cc(-c2c(C)noc2C)cc2[nH]c(C3CCC3)nc12` [Compound 1020-75, 4-(2-Cyclobutyl-4-(3,5-dimethyl-1H-pyrazol-4-yl)-1H-benzo[d]imidazol-6-yl)-3,5-dimethylisoxazole] the EC50 was 18.4 nM. `Cc1nc2cc(-c3c(C)noc3C)cc(-c3c(C)n[nH]c3C)c2[nH]1` [Compound 1020-77, 4-(7-(3,5-Dimethyl-1H-pyrazol-4-yl)-2-methyl-1H-benzo[d]imidazol-5-yl)-3,5-dimethylisoxazole] showed an EC50 of 39.4 nM. Compound `Cc1n[nH]c(C)c1-c1cc(-c2c(C)noc2C)cc2nc(C3CC3(F)F)[nH]c12` (stereo not shown) [Compound 1020-78, 4-(2-(2,2-Difluorocyclopropyl)-7-(3,5-dimethyl-1H-pyrazol-4-yl)-1H-benzo[d]imidazol-5-yl)-3,5-dimethylisoxazole] has an EC50 of 25.7 nM. With `Cc1n[nH]c(C)c1-c1cc(-c2c(C)noc2C)cc2[nH]c(NCC3CC3)nc12` [Compound 1020-79, N-(Cyclopropylmethyl)-4-(3,5-dimethyl-1H-pyrazol-4-yl)-6-(3,5-dimethylisoxazol-4-yl)-1H-benzo[d]imidazol-2-amine] the EC50 was 33.8 nM. In the case of `Cc1n[nH]c(C)c1-c1cc(-c2c(C)noc2C)cc2[nH]c(NC3CC3)nc12` [Compound 1020-81, N-Cyclopropyl-4-(3,5-dimethyl-1H-pyrazol-4-yl)-6-(3,5-dimethylisoxazol-4-yl)-1H-benzo[d]imidazol-2-amine], the EC50 is reported as 7.6 nM. Work on `Cc1ccnc(C)c1-c1cc(-c2c(C)noc2C)cc2[nH]cnc12` [Compound 1020-84, 4-(4-(2,4-Dimethylpyridin-3-yl)-1H-benzo[d]imidazol-6-yl)-3,5-dimethylisoxazole] yielded an EC50 of 236 nM. `Cc1ccc2ncccc2c1-c1cc(-c2c(C)noc2C)cc2[nH]c(-c3cnn(C)c3)nc12` [Compound 1020-88, 3,5-Dimethyl-4-(2-(1-methyl-1H-pyrazol-4-yl)-4-(6-methylquinolin-5-yl)-1H-benzo[d]imidazol-6-yl)isoxazole] gave an EC50 of 45.2 nM. With `Cc1ccc2ncccc2c1-c1cc(-c2c(C)noc2C)cc2[nH]c(C(O)CCO)nc12` (stereo not shown) [Compound 1020-89, 1-(6-(3,5-dimethylisoxazol-4-yl)-4-(6-methylquinolin-5-yl)-1H-benzo[d]imidazol-2-yl)propane-1,3-diol] the EC50 was 104 nM. With `COc1nc2c(-c3c(C)ccc4ncccc34)cc(-c3c(C)noc3C)cc2[nH]1` [Compound 1020-90, 4-(2-methoxy-4-(6-methylquinolin-5-yl)-1H-benzo[d]imidazol-6-yl)-3,5-dimethylisoxazole] the EC50 was 25 nM. In the case of `Cc1ccc2ncccc2c1-c1cc(-c2c(C)noc2C)cc2[nH]c(C(F)(F)F)nc12` [Compound 1020-92, 3,5-Dimethyl-4-(4-(6-methylquinolin-5-yl)-2-(trifluoromethyl)-1H-benzo[d]imidazol-6-yl)isoxazole], the EC50 is reported as 73.1 nM. With `Cc1n[nH]c(C)c1-c1cc(-c2c(C)noc2C)cc2nc(N)[nH]c12` [Compound 1020-96, 4-(3,5-Dimethyl-1H-pyrazol-4-yl)-6-(3,5-dimethylisoxazol-4-yl)-1H-benzo[d]imidazol-2-amine] the EC50 was 318 nM. `Cc1noc(C)c1-c1cc(C(O)(c2ccccc2)c2ccccc2)c2nc(C3CC3)[nH]c2c1` [Compound 1020-102, (2-Cyclopropyl-6-(3,5-dimethylisoxazol-4-yl)-1H-benzo[d]imidazol-4-yl)diphenylmethanol] was tested, and the EC50 was 49.7 nM. Compound `CCC(CC)c1cc(-c2c(C)noc2C)cc2[nH]c(C3CC3)nc12` [Compound 1020-120, 4-(2-Cyclopropyl-4-(pentan-3-yl)-1H-benzo[d]imidazol-6-yl)-3,5-dimethylisoxazole] has an EC50 of 48.8 nM. For `Cc1noc(C)c1-c1cc(C(O)C2CCCC2)c2nc(C3CC3)[nH]c2c1` (stereo not shown) [Compound 1020-121, Cyclopentyl(2-cyclopropyl-6-(3,5-dimethylisoxazol-4-yl)-1H-benzo[d]imidazol-4-yl)methanol], the EC50 was 42.8 nM. `CCC(O)(CC)c1cc(-c2c(C)noc2C)cc2c1nc(C1CC1)n2C` [Compound 1020-132, 3-(2-Cyclopropyl-6-(3,5-dimethylisoxazol-4-yl)-1-methyl-1H-benzo[d]imidazol-4-yl)pentan-3-ol] was tested, and the EC50 was 544 nM. `Cc1noc(C)c1-c1cc(N2C(=O)CCC2C)c2nc(C3CC3)[nH]c2c1` (stereo not shown) [Compound 1020-136, 1-(2-Cyclopropyl-6-(3,5-dimethylisoxazol-4-yl)-1H-benzo[d]imidazol-4-yl)-5-methylpyrrolidin-2-one] was tested, and the EC50 was 335 nM. Work on `CCC1CCC(=O)N1c1cc(-c2c(C)noc2C)cc2[nH]c(C3CC3)nc12` (stereo not shown) [Compound 1020-137, 1-(2-Cyclopropyl-6-(3,5-dimethylisoxazol-4-yl)-1H-benzo[d]imidazol-4-yl)-5-ethylpyrrolidin-2-one] yielded an EC50 of 113 nM. In the case of `Cc1noc(C)c1-c1cc(S(=O)(=O)NC2CCCC2)c2nc(Cc3ccccc3)[nH]c2c1` [Compound 1020-141, 2-Benzyl-N-cyclopentyl-6-(3,5-dimethylisoxazol-4-yl)-1H-benzo[d]imidazole-4-sulfonamide], the EC50 is reported as 887 nM. `Cc1noc(C)c1-c1cc(S(=O)(=O)NC2CCCC2)c2nc(NCC(F)(F)F)[nH]c2c1` [Compound 1020-148, N-Cyclopentyl-6-(3,5-dimethylisoxazol-4-yl)-2-(2,2,2-trifluoroethylamino)-1H-benzo[d]imidazole-4-sulfonamide] gave an EC50 of 495 nM.
